{"source": "patent US7727731B2", "about": "“Potent, selective and non toxic c-kit inhibitors” (AB Science, priority 2001, dated 2010)", "key": {"SCF activated c-kit wild": {"target": "T1, SCF activated c-kit wild (Mus musculus, UniProt P05532)", "T1 construct": "expressed in transfected cells; host or cells: Ba/F3 (murine, IL-3 dependent)", "T1 sequence (P05532 25-975 isoform P05532-2 limits assumed)": "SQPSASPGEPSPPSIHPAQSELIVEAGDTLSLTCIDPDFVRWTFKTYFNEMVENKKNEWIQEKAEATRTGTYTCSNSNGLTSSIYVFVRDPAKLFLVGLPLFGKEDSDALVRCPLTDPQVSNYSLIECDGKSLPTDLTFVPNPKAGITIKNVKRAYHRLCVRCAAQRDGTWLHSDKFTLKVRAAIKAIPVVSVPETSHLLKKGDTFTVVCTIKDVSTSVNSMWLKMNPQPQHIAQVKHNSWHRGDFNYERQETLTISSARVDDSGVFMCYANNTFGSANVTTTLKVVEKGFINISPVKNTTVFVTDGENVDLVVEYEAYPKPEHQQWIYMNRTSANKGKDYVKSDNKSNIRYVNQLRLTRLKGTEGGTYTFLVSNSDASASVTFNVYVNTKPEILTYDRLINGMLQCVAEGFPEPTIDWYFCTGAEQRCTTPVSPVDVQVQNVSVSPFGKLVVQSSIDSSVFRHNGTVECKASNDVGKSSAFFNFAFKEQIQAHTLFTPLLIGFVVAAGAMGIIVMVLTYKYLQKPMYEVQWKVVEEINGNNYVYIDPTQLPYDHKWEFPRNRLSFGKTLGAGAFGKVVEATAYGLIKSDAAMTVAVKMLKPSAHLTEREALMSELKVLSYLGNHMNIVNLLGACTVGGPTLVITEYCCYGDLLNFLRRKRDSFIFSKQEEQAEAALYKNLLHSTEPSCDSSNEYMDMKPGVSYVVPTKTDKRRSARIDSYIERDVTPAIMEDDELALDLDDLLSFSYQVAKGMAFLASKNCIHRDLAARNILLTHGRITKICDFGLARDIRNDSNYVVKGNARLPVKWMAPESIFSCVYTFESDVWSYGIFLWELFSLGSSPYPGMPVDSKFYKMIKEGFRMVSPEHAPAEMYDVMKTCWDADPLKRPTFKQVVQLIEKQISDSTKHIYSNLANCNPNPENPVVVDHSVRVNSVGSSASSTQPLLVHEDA", "experiment": "Proliferation test, Ba/F3 Kit cells with SCF", "type": "cell-based, murine", "conditions": "doses inferior to toxicity level (<10 μM)", "method": "(§1) First step: cellular proliferation to select molecules which are able to slowdown or stop cellular growth induced by c-kit activation. Here, SCF activated c-kit is used. Then, the effect of these molecules is analyzed by biochemistry techniques (immuno precipitations and western-blots), so that to determine if the inhibitor acts directly on the receptor c-kit or on other proteins, which are mediators of Kit signals. In a second step, a subset of molecules identified is selected in a cellular test on IL-3 dependant cells cultured in presence of IL-3. molecules that are not toxic are identified as potent specific c-kit inhibitors for a use in therapy.\n(§2) Two types of cell lines carrying wild or mutated forms of c-kit are available lines derived from mastocytomes and the Ba/F3 cell model (cells depending on IL-3). In the Ba/F3 cells, the expression of c-kit removes the dependence vis-a-vis IL-3. Consequently, cDNA of wild or mutated murine c-kit has been introduced and these cells proliferate either in presence of SCF in case of c-kit wild or in absence of any growth factor in case of activated mutant c-kit.\nPreparation of cell lines • Ba/F3-Kit: Ba/F3 cells in which Kit gene, mutated or wild, has been introduced. They proliferate either in presence of Kit ligand (SCF) or in presence of IL-3. […]"}, "[1]": {"target": "T2, c-kit carrying the 814 mutation (Mus musculus, UniProt P05532, D818V)", "T2 construct": "expressed in transfected cells; host or cells: IC2 murine mast cell line", "T2 sequence (P05532 25-975 isoform P05532-2 D814V limits assumed)": "as the sequence (P05532 25-975 isoform P05532-2 limits assumed) above, with D790V counted along it", "experiment": "Proliferation test, IC2 D814V cells", "type": "cell-based, murine", "conditions": "doses inferior to toxicity level (<10 μM)", "method": "We have tested 37 compounds that are indolinone derivatives in different cell lines and successive screening to select interesting inhibitors. • Method: select the compounds which are effectively c-kit inhibitors (Table 1) Each compound has been tested at a high dose (10 μM) on cell expressing • c-kit carrying the 814 mutation • SCF activated c-kit wild • control cells cultivated in IL-3.\nThe effect of the 21 inhibitors has been tested at decreasing concentrations (10-10^−1-10^−2 μM) in order to reveal compounds that are able at 1 μM to inhibit proliferation of the IC2 D814V line while preserving response to another stimulus (IL-3, toxicity control).\nThe nine compounds selected have been tested at narrower doses: between 0.1 and 1 μM. At this stage, the three most efficient compounds at lower doses have been selected (≦0.6 μM): 11, 14 and 35.\n(§3) Table set up according to CPM (Counts Per Minutes) percentage obtained after proliferation in absence of inhibitors as 100% (% CPM>80=−−/50<% CPM<80=−/20<% CPM <50=+/5<% CPM<20=+/%-CPM<5=++). All experiments were done in triplicate."}, "[2]": {"tested_on": "mutant in a human mast cell leukemia cell line (HMC-1, expressing a juxtamembrane mutation)", "conditions": "cited from earlier work"}, "814 mutant c-kit": {"tested_on": "814 mutant c-kit", "experiment": "c-kit phosphorylation after immunoprecipitation, 814 mutant", "type": "cell-based", "method": "as §1\n(§4) The first step of c-kit activation consists of receptor phosphorylation on tyrosine residues. Thus, the phosphorylation state is a measure of receptor activation. By using specific antibodies, c-kit has been isolated by immunoprecipitation and c-kit phosphorylation has been determined using common procedures."}, "[3]": {"target": "T3, FMA3 (deletion 7aa. juxtamembrane) (Mus musculus, UniProt P05532, DEL577-583)", "T3 construct": "endogenous in cells; host or cells: FMA3 mouse mastocytoma cells", "T3 sequence (P05532 with tags, fused parts or gaps isoform P05532-2 DEL573-579)": "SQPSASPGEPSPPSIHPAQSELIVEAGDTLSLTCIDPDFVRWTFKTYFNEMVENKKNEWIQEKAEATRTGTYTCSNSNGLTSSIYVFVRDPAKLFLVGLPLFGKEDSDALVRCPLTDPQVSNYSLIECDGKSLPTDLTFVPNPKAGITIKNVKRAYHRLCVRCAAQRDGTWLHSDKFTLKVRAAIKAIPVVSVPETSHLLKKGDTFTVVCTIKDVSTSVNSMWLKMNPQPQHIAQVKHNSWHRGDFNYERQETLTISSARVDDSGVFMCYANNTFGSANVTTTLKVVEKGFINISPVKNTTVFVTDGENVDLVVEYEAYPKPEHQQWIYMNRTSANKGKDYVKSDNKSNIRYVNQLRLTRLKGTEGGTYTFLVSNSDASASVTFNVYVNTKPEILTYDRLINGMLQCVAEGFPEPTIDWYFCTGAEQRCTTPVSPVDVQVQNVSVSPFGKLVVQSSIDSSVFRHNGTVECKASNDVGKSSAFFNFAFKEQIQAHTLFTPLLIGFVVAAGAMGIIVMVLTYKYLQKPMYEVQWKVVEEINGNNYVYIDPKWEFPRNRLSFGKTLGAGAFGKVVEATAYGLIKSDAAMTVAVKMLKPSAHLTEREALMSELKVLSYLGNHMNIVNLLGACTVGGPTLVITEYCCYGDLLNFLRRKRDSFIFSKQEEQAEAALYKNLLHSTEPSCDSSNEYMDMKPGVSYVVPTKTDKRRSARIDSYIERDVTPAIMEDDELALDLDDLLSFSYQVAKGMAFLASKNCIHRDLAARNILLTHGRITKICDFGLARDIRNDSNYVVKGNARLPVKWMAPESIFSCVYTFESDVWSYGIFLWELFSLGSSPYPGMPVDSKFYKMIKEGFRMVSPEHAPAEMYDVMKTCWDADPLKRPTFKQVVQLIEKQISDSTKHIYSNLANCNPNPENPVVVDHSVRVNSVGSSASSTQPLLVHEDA", "experiment": "Proliferation test, FMA3 cells", "type": "cell-based", "conditions": "doses inferior to toxicity level (<10 μM)", "from_the_text": "(§5) Juxtamembrane Mutations • Ba/F3-KitΔ27 (transfected juxtamembrane mutation—identified at the Laboratory) • Ba/F3-KitG559 (transfected juxtamembrane mutation) • FMA3 (deletion 7aa. juxtamembrane identified in a mouse mastocytome)"}, "[4]": {"tested_on": "c-kit carrying one of the juxtamembrane mutations (Δ27)", "experiment": "Proliferation test, Ba/F3 Δ27 cells", "type": "cell-based, murine", "conditions": "doses inferior to toxicity level (<10 μM)", "from_the_text": "as §2, §5\nCells expressing c-kit carrying one of the juxtamembrane mutations (Δ27) were also used as a control.\nas §3"}, "c-kit wild": {"target": "c-kit wild (Mus musculus, UniProt P05532)", "sequence (P05532 25-975 isoform P05532-2 limits assumed)": "as the sequence (P05532 25-975 isoform P05532-2 limits assumed) above", "experiment": "c-kit phosphorylation after immunoprecipitation, c-kit wild", "type": "cell-based", "method": "as §1, §4"}, "[5]": {"tested_on": "c-kit bearing juxtamembrane mutations", "sequence (P05532 592-939 limits assumed, change not shown)": "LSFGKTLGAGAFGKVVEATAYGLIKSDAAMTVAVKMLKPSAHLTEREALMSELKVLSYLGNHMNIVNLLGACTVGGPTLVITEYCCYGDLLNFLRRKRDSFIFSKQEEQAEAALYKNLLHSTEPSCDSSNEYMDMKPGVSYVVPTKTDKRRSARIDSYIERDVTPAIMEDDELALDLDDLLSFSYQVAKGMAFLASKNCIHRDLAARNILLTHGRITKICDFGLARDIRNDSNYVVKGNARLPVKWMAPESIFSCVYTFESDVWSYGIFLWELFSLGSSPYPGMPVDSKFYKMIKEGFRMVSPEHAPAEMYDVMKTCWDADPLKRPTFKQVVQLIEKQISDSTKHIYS", "experiment": "c-kit phosphorylation after immunoprecipitation, juxtamembrane mutants", "type": "cell-based", "method": "as §1, §4"}}, "data": [{"substance": "STI 571", "values": [{"measurement": "Effect on proliferation depending on c-kit wild", "setting": "SCF activated c-kit wild", "value": "inhibits totally the proliferation"}, {"measurement": "Effect on proliferation of cells carrying 814 mutation, IC2", "setting": "[1]", "value": "not the proliferation of cells carrying 814 mutation"}, {"measurement": "Inhibitory effect on kinase activity of HMC-1 mutant compared with ligand-dependent activation of the wild-type receptor", "setting": "[2]", "value": "more potent inhibitory effect"}, {"measurement": "Phosphorylation of the 814 mutant c-kit", "setting": "814 mutant c-kit", "value": "is not reduced"}, {"measurement": "Effect on proliferation, juxtamembrane mutation FMA3", "setting": "[3]", "value": "inhibits totally the proliferation"}, {"measurement": "Effect on proliferation, juxtamembrane mutation Δ27", "setting": "[4]", "value": "inhibits totally the proliferation"}, {"measurement": "Phosphorylation of c-kit wild", "setting": "c-kit wild", "value": "considerably reduces the phosphorylation"}, {"measurement": "Phosphorylation of c-kit bearing juxtamembrane mutations", "setting": "[5]", "value": "considerably reduces the phosphorylation"}]}]}
